Assay results reported in a compilation of properties of binary mixtures (doi:10.1007/s10953-016-0465-y).

Experiment: xn = mol fraction of the nth substance listed
Conditions: 101 kPa

Q: Which speed of sound (298.15 K, x2 = 0) does the source give for `COCCO` + CCOS(=O)(=O)[O-].CC[n+]1ccn(C)c1 here?
A: 1344 m/s

Q: What about the speed of sound (308.15 K, x2 = 0) of the same compound?
A: 1309.2 m/s

Q: What about the speed of sound (318.15 K, x2 = 0) of the same compound?
A: 1274.5 m/s

Q: And the speed of sound (328.15 K, x2 = 0)?
A: 1240.1 m/s

Q: Which results are given for `CCOS(=O)(=O)[O-].CC[n+]1ccn(C)c1` + COCCO?
A: speed of sound (298.15 K, x1 = 0.049): 1381 m/s; speed of sound (298.15 K, x1 = 0.0819): 1403 m/s; speed of sound (298.15 K, x1 = 0.1453): 1441 m/s; speed of sound (298.15 K, x1 = 0.1765): 1457.4 m/s; speed of sound (298.15 K, x1 = 0.2557): 1494.5 m/s; speed of sound (298.15 K, x1 = 0.5453): 1592.2 m/s; speed of sound (298.15 K, x1 = 0.6466): 1617.7 m/s; speed of sound (298.15 K, x1 = 0.7562): 1641.6 m/s; speed of sound (298.15 K, x1 = 0.8206): 1654 m/s; speed of sound (298.15 K, x1 = 0.951): 1674.9 m/s; speed of sound (298.15 K, x1 = 1): 1680.8 m/s; speed of sound (308.15 K, x1 = 0.1453): 1412 m/s; speed of sound (308.15 K, x1 = 0.1765): 1429 m/s; speed of sound (308.15 K, x1 = 0.3386): 1500.6 m/s; speed of sound (308.15 K, x1 = 0.4472): 1537.2 m/s; speed of sound (308.15 K, x1 = 0.5453): 1565.7 m/s; speed of sound (308.15 K, x1 = 0.8206): 1629.2 m/s; speed of sound (308.15 K, x1 = 0.8868): 1641 m/s; speed of sound (308.15 K, x1 = 0.951): 1650.6 m/s; speed of sound (308.15 K, x1 = 1): 1656.4 m/s; speed of sound (318.15 K, x1 = 0.049): 1316.1 m/s; speed of sound (318.15 K, x1 = 0.0819): 1340.4 m/s; speed of sound (318.15 K, x1 = 0.1453): 1381.9 m/s; speed of sound (318.15 K, x1 = 0.1765): 1399.5 m/s; speed of sound (318.15 K, x1 = 0.2557): 1438.7 m/s; speed of sound (318.15 K, x1 = 0.3386): 1472.9 m/s; speed of sound (318.15 K, x1 = 0.4472): 1510.3 m/s; speed of sound (318.15 K, x1 = 0.5453): 1539.3 m/s; speed of sound (318.15 K, x1 = 0.6466): 1565.9 m/s; speed of sound (318.15 K, x1 = 0.7562): 1591.4 m/s; speed of sound (318.15 K, x1 = 0.8206): 1604.6 m/s; speed of sound (318.15 K, x1 = 0.951): 1626.6 m/s; speed of sound (328.15 K, x1 = 0.049): 1282.9 m/s; speed of sound (328.15 K, x1 = 0.0819): 1308 m/s; speed of sound (328.15 K, x1 = 0.1765): 1369.2 m/s; speed of sound (328.15 K, x1 = 0.2557): 1410 m/s; speed of sound (328.15 K, x1 = 0.4472): 1484.3 m/s; speed of sound (328.15 K, x1 = 0.5453): 1514.2 m/s; speed of sound (328.15 K, x1 = 0.6466): 1541.3 m/s; speed of sound (328.15 K, x1 = 0.7562): 1567 m/s; speed of sound (328.15 K, x1 = 0.8206): 1580.4 m/s; speed of sound (328.15 K, x1 = 0.951): 1602.8 m/s; speed of sound (328.15 K, x1 = 1): 1608.9 m/s
